Like-named read-outs stand apart in the source and are kept apart here. No end group written: not given here.

The conditions of data set [1]: POPC–POPS–Erg (16:3:1) LUVs. The procedure:
To evaluate the effect of monomeric and dimeric peptides on the lipid membrane and relate it to the mechanism of action, vesicle permeabilization studies were carried out for evaluating the possible mechanisms on membrane. The leakage assays were carried out with carboxyfluorescein (CF) internalized in the mimetic membranes. The vesicles of POPC–Chol (4:1) and POPC–POPS (phosphatidylserine)–ergosterol (16:3:1) were employed. These mimetic membranes were designed considering the compositions of phospholipids and steroids in the host membrane and in the Leishmania membrane, respectively. The constitution of the cell membrane of Leishmania varies according to the morphology of the parasite and its stage of development, but is more negative than the cell membranes of mammals, which allow for cationic AMPs to bind more easily. Our studies were based on the membrane of the promastigote form, which is characterized by the presence of mainly phosphatidylcholine, phosphatidylethanolamine, phosphatidylinositol, phosphatidylserine, and ergosterol, in addition to diglycerides and glycolipids containing mannose and galactose. In the amastigote form of Leishmania, there is a higher concentration of fatty acids and cholesterol, while triglycerides and ergosterol decrease during the transition from promastigotes to amastigotes. In addition, the main phospholipids found are sphingomyelin and phosphatidylserine, with lower proportions of phosphatidylinositol and lysophosphatidylethanolamine.
Large unilamellar vesicles (LUVs) composed of POPC (1-palmitoyl-2-oleoyl-sn-glycero-3-phosphatidylcholine) and cholesterol (Chol) (4:1), or POPC, POPS (1-palmitoyl-2-oleoyl-sn-glycero-3-serine), and ergosterol (Erg) (16:3:1) were prepared according to the methods described by Lorenzón et al.. […] We employed a Hitachi U-2000 spectrophotometer (TSHa) (Hitachi, Tokyo, Japan) or a Fluorolog-3 FL3-122 spectrofluorometer (Horiba Jobin Yvon, Glasgow, UK) ((TSHa)2K) for analyses.

Data set [2] concerns L. mexicana promastigotes. As to the kind of experiment: microbe, parasite or virus in culture. Conditions: ± standard deviation, SD, read-out: IC50 Promastigote. It is filed as cell-based, Leishmania mexicana. The procedure:
(§1) The L. amazonensis promastigotes (MPRO/BR/1972/M1841-LV-79) were grown in LIT culture medium, while the L. mexicana promastigotes (MNYC/BZ/62/M379) were cultivated in Schneider’s medium (Sigma-Aldrich, St. Louis, MO, USA), supplemented with 10% heat-inactivated fetal bovine serum (FBS; Gibco/Invitrogen, Waltham, MA, USA) at 28 °C until reaching the mid-log phase of growth. Macrophages were sourced from the peritoneal cavity of Swiss mice using the methodology outlined by de Almeida et al.. Anti-promastigote and anti-amastigote assays of L. mexicana and L. amazonensis and their cytotoxic activity were conducted as previously described. IC50 is the concentration capable of killing 50% of the parasites. The drug concentration that inhibited 50% of cell growth was denoted as the 50% cytotoxic concentration (CC50). Cytotoxicity for the host cells and the protozoan species was compared and expressed as the selectivity index (SI), calculated as the ratio of the CC50 for macrophages to the IC50 for the protozoan species.

For data set [3], the system named is L. amazonensis promastigotes. As to the kind of experiment: microbe, parasite or virus in culture. It is filed as cell-based, Leishmania amazonensis. Conditions: read-out: IC50 Promastigote. The procedure: as §1
A further data set addresses LmCPB2.8ΔCTE (CPB) (Leishmania mexicana, UniProt P36400). As to the kind of experiment: Cysteine protease (CPB) enzyme inhibition assay. The format is biochemical. The procedure:
The CPB inhibition experiments were performed as described previously by Moreira et al.. The results are expressed as mean ± standard deviation of two independent replicates as the half maximal CPB enzyme inhibitory concentration (IC50-CPB) using Bioestat 5.0 software.

The subject of data set [4] is L. amazonensis promastigotes. Conditions: read-out: IC50 Promastigote with active fetal bovine serum, LIT medium with active (not heat-inactivated) fetal bovine serum, ± standard deviation, SD. The procedure:
Therefore, stability studies were carried out with these molecules in the presence of the Leishmania parasite in its promastigote form, with active fetal bovine serum added to the culture medium. […] Assays were performed using the TSHa and (TSHa)2K peptides.
Peptide stability was investigated using anti-promastigote assays (as described by Costa et al. 2023 [58]) with L. amazonensis and LIT culture media with fetal bovine serum.

The next data set concerns L. mexicana amastigotes. As to the kind of experiment: microbe, parasite or virus in culture. It is filed as cell-based, Leishmania mexicana. Conditions: ± standard deviation, SD. The procedure: (§2) Macrophages were sourced from the peritoneal cavity of Swiss mice using the methodology outlined by de Almeida et al.. Anti-promastigote and anti-amastigote assays of L. mexicana and L. amazonensis and their cytotoxic activity were conducted as previously described. […] Cytotoxicity for the host cells and the protozoan species was compared and expressed as the selectivity index (SI), calculated as the ratio of the CC50 for macrophages to the IC50 for the protozoan species.

For the next data set, the system named is peritoneal macrophages. As to the kind of experiment: Cytotoxicity in peritoneal macrophages. It is filed as cell-based. Conditions: peritoneal macrophages of Swiss mice. The procedure: as §1
Data set [5] concerns L. amazonensis amastigotes. As to the kind of experiment: microbe, parasite or virus in culture. It is filed as cell-based, Leishmania amazonensis. Conditions: read-out: IC50 Amastigote. The procedure: as §2

Sequence of LmCPB2.8ΔCTE (CPB) (P36400 126-343, stated change not applied): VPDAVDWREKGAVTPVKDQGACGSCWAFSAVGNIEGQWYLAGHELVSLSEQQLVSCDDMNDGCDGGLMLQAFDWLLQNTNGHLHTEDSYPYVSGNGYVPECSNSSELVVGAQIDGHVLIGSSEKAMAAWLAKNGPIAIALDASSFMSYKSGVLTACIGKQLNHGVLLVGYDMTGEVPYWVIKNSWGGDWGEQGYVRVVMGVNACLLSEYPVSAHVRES

For orientation: IC50 means the concentration at which inhibition is half-maximal. As to FLSGIVGMLGKLF-NH2 [TSHa], the CF release entry in data set [1] (peptide 1 µmol L^−1, fluorescence) was “around 70%”; in data set [1] (peptide 5 µmol L^−1, fluorescence), approximately 85%. Besides, the IC50 in data set [2] was 6.3 ± 0.85 µM; in data set [3], 8 ± 0.1 µM; against LmCPB2.8ΔCTE (CPB) (mean ± SD of two independent replicates, SD) it was 9.2 ± 2.2 µM; in data set [4], 20 ± 2.15 µM; in the data set on L. mexicana amastigotes (24 h of treatment, read-out: IC50 Amastigote 24 h of Treatment) it was 5 ± 0.05 µM; in the data set on L. mexicana amastigotes (48 h of treatment, read-out: IC50 Amastigote 48 h of Treatment), 8.1 ± 0.45 µM. Further, the concentration for half-maximal inhibition (IC50) in data set [5] was determined as 6.8 ± 2.82 µM. The “Inhibitory Activity at 20 μmol L^−1” value on LmCPB2.8ΔCTE (CPB) (20 μmol L^−1, mean ± SD of two independent replicates, SD) is 94.22 ± 1.54 %. For the same substance, at LmCPB2.8ΔCTE (CPB) (20 μmol L^−1, mean ± SD of two independent replicates, read-out: Inhibitory Activity at 20 μmol L^−1), the inhibition at 20 µM was more than 90%. For the same substance, the “CC50 Peritoneal Macrophages” value with peritoneal macrophages (Table 1, ± standard deviation, SD) is more than 1000 ± 0.01 µM. The “CC50 Peritoneal Macrophage” value with peritoneal macrophages (Table 2) was more than 1000 ± 1.8 µM.

For the origin of these results see publication PMC11547375, “Peptide Dimerization as a Strategy for the Development of Antileishmanial Compounds” (Molecules, 2024).
